Experimental data as given in patent publication US12692241B2, “Substituted triazine compound” (Nico Therapeutics, Inc., priority 2021, dated 2026).

system: IL-1β production in THP-1 cells (LPS and ATP; NLRP3 inflammasome activation); experiment: THP-1 IL-1β production inhibitory test; assay type: cell-based, human; conditions: Homo sapiens, THP-1, 2 h, PMA-differentiated THP-1 cells, LPS 50 ng/mL and ATP 5 mM, 2 hours, ELISA; read-out: IC50 (nM), IL-1β production
Description: THP-1 IL-1β Production Inhibitory Test
To THP-1 cells, 50 ng/mL PMA (phorbol myristate acetate, SIGMA, P1585) was added at 37° C. and then the cells were cultured for 2 days. […] The cells were cultured at 37° C. for 15 minutes. LPS (lipopolysaccharide, SIMGA, L2880) and ATP (adenosine triphosphate, SIGMA, A2383) were added such that the final concentrations of them became 50 ng/mL and 5 mM, respectively. The cells were cultured at 37° C. for 2 hours. The supernatant was collected and the concentration of IL-1β was measured by ELISA (DuoSet ELISA human IL-1β, R&D Systems, DY201). The concentration of IL-1β was plotted against the logarithm of the concentration of the test compound, and the IC50 value was calculated by sigmoidal Emax model nonlinear regression analysis.

| SMILES | IC50 |
| --- | --- |
| Cc1nc(Nc2ccn(CCO)n2)nnc1-c1ccc(C(F)(F)F)cc1O [Example 90] | 53 nM |
| Cc1nc(NCC2CC2)nnc1-c1ccc(C(F)(F)F)cc1O [Example 91] | 52 nM |
| Cc1nc(NCc2cccnc2)nnc1-c1ccc(C(F)(F)F)cc1O [Example 92] | 200 nM |
| Cc1nc(Nc2cnn(C)c2)nnc1-c1ccc(C(F)(F)F)cc1O [Example 93] | 130 nM |
| Cc1nc(NCc2cc[nH]n2)nnc1-c1ccc(C(F)(F)F)cc1O [Example 94] | 70 nM |
| Cc1nc(NCCN2CCOCC2)nnc1-c1ccc(C(F)(F)F)cc1O [Example 95] | 410 nM |
| Cc1nc(NCC2CCCCO2)nnc1-c1ccc(C(F)(F)F)cc1O (stereo not shown) [Example 96] | 81 nM |
| Cc1nc(Nc2ccn(C)n2)nnc1-c1ccc(C(F)(F)F)cc1O [Example 97] | 150 nM |
| Oc1cc(C(F)(F)F)ccc1-c1nnc(N[C@@H]2CCCC[C@H]2O)nc1-c1ccccc1 [Example 98] | 280 nM |
| Cc1nc(N[C@H]2C[C@H](CO)C2)nnc1-c1ccc(C(F)(F)F)cc1O [Example 99] | 9.4 nM |
| Cc1nc(N[C@H]2C[C@@H](CO)C2)nnc1-c1ccc(C(F)(F)F)cc1O [Example 100] | 6.4 nM |
| Cc1nc(NCCC#N)nnc1-c1ccc(C(F)(F)F)cc1O [Example 101] | 130 nM |
| Cc1nc(N[C@@H]2CC[C@H](C#N)C2)nnc1-c1ccc(C(F)(F)F)cc1O [Example 102] | 11 nM |
| Cc1nc(N[C@@H]2CC[C@@H](C#N)C2)nnc1-c1ccc(C(F)(F)F)cc1O [Example 103] | 30 nM |
| CC(=O)NCCC1(CNc2nnc(-c3ccc(C(F)(F)F)cc3O)c(C)n2)CCC1 [Example 104] | 91 nM |
| CC(=O)NC[C@H]1C[C@@H](Nc2nnc(-c3ccc(C(F)(F)F)cc3O)c(C)n2)C1 [Example 105] | 36 nM |
| CC(=O)NC[C@H]1C[C@H](Nc2nnc(-c3ccc(C(F)(F)F)cc3O)c(C)n2)C1 [Example 106] | 26 nM |

Continued, values first:

| IC50 | SMILES |
| --- | --- |
| 25 nM | Cc1nc(Nc2ccn(C[C@@H](C)O)n2)nnc1-c1ccc(C(F)(F)F)cc1O [Example 107] |
| 17 nM | Oc1cc(C(F)(F)F)ccc1-c1nnc(N[C@@H]2CCCC[C@H]2O)nc1C1CC1 [Example 109] |
| 15 nM | Oc1cc(C(F)(F)F)ccc1-c1nnc(N[C@@H]2CCC[C@H]2O)nc1C1CC1 [Example 110] |
| 12 nM | Oc1cc(C(F)(F)F)ccc1-c1nnc(N[C@@H]2CCOC[C@H]2O)nc1C1CC1 [Example 111] |
| 18 nM | Oc1cc(OC(F)(F)F)ccc1-c1nnc(N[C@@H]2CCOC[C@H]2O)nc1C1CC1 [Example 112] |
| 37 nM | Oc1cc(Cl)ccc1-c1nnc(N[C@@H]2CCOC[C@H]2O)nc1C1CC1 [Example 113] |
| 33 nM | Cc1ccc(-c2nnc(N[C@@H]3CCOC[C@H]3O)nc2C2CC2)c(O)c1 [Example 114] |
| 8.5 nM | Oc1cc(Cl)ccc1-c1nnc(N[C@@H]2CCCC[C@H]2O)nc1C1CC1 [Example 115] |
| 23 nM | Oc1cc(OC(F)(F)F)ccc1-c1nnc(N[C@@H]2CCCC[C@H]2O)nc1C1CC1 [Example 116] |
| 19 nM | Cc1ccc(-c2nnc(N[C@@H]3CCCC[C@H]3O)nc2C2CC2)c(O)c1 [Example 117] |
| 47 nM | Oc1cc(C(F)(F)F)ccc1-c1nnc(N[C@@H]2CCCC[C@H]2O)nc1C(F)F [Example 118] |
| 42 nM | Cc1ccc(-c2nnc(N[C@H]3C[C@@](C)(O)C3)nc2C2CC2)c(O)c1 [Example 119] |
| 83 nM | C[C@]1(O)C[C@@H](Nc2nnc(-c3ccc(OC(F)(F)F)cc3O)c(C3CC3)n2)C1 [Example 120] |
| 43 nM | C[C@]1(O)C[C@@H](Nc2nnc(-c3ccc(Cl)cc3O)c(C3CC3)n2)C1 [Example 121] |
| 15 nM | C[C@@]1(O)CCCC[C@H]1Nc1nnc(-c2ccc(C(F)(F)F)cc2O)c(C2CC2)n1 [Example 122] |
| 54 nM | C[C@@]1(O)CCCC[C@H]1Nc1nnc(-c2ccc(Cl)cc2O)c(C2CC2)n1 [Example 123] |
| 37 nM | C[C@@]1(O)CCCC[C@H]1Nc1nnc(-c2ccc(OC(F)(F)F)cc2O)c(C2CC2)n1 [Example 124] |
